Assay: Tests for dissolving the composition in liquid media (water, liquid paraffin, propylene glycol)
Type: physicochemical
Settings: 0.75% by mass of N-lauroyl proline (Composition 3 at 3% by mass)
Procedure: Composition 3 prepared in the above paragraph is dissolved in water, in liquid paraffin and in propylene glycol, at a proportion of 3% by mass, which corresponds to 0.75% by mass of N-lauroyl proline.

Temperature at which dispersible in liquid paraffin (liquid paraffin): dispersible at 70 °C
Temperature at which dispersible in propylene glycol (propylene glycol): dispersible at 60 °C
Temperature at which dispersible in water (water): dispersible at 80 °C
Compound: CCCCCCCCCCCC(=O)N1CCC[C@H]1C(=O)O [Pure N-lauroyl proline, N-lauroyl proline]

— patent US8093221B2, “Cosmetic and pharmaceutical compositions comprising lauroyl proline and an ester of anhydrohexitol and of an aliphatic carboxylic acid” (Societe d'Exploitation de Produits pour les Industries …, priority 2005, dated 2012)
